In PubChem BioAssay AID328 (DTP/NCI, 2004):
“And” between values parts separate entries of the source, which are not always exact repeats. Equal entries are not always repeated. Inconclusive results and toxic doses are left out.

System: BDF1 mice, P388 leukemia ip, median survival T/C
Assay: NCI In Vivo Anticancer Drug Screen. Data for tumor model P388 Leukemia (intraperitoneal) in B6D2F1 (BDF1) mice
Conditions: endpoint: median survival time, higher = longer survival
Procedure, shortened: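 Each value expresses how treatment altered survival: treated-mouse outcome over vehicle-mouse outcome, both groups bearing the transplanted tumour.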

[1] = dose: 100.0 mg/kg/injection, schedule: Q01DX009 (ip), vehicle: saline with Tween-80
[2] = dose: 100.0 mg/kg/injection, schedule: Q04DX003 (ip), vehicle: saline with Tween-80
[3] = dose: 200.0 mg/kg/injection, schedule: Q01DX009 (ip), vehicle: saline with Tween-80
[4] = dose: 200.0 mg/kg/injection, schedule: Q04DX003 (ip), vehicle: saline with Tween-80
[5] = dose: 400.0 mg/kg/injection, schedule: Q01DX009 (ip), vehicle: saline with Tween-80
[6] = dose: 400.0 mg/kg/injection, schedule: Q04DX003 (ip), vehicle: saline with Tween-80
[7] = dose: 50.0 mg/kg/injection, schedule: Q01DX009 (ip), vehicle: saline with Tween-80
[8] = dose: 100.0 mg/kg/injection, schedule: Q04DX003 (ip), vehicle: saline
[9] = dose: 200.0 mg/kg/injection, schedule: Q04DX003 (ip), vehicle: saline
[10] = dose: 25.0 mg/kg/injection, schedule: Q04DX003 (ip), vehicle: saline
[11] = dose: 50.0 mg/kg/injection, schedule: Q04DX003 (ip), vehicle: saline
[12] = dose: 6.25 mg/kg/injection, schedule: Q01DX009 (ip), vehicle: saline with Tween-80
[13] = dose: 12.5 mg/kg/injection, schedule: Q01DX009 (ip), vehicle: saline with Tween-80
[14] = dose: 100.0 mg/kg/injection, schedule: Q01DX009 (ip), vehicle: Klucel (hydroxypropylcellulose) (HPC)
[15] = dose: 100.0 mg/kg/injection, schedule: Q04DX003 (ip), vehicle: Klucel (hydroxypropylcellulose) (HPC)
[16] = dose: 200.0 mg/kg/injection, schedule: Q01DX009 (ip), vehicle: Klucel (hydroxypropylcellulose) (HPC)
[17] = dose: 200.0 mg/kg/injection, schedule: Q04DX003 (ip), vehicle: Klucel (hydroxypropylcellulose) (HPC)
[18] = dose: 400.0 mg/kg/injection, schedule: Q01DX009 (ip), vehicle: Klucel (hydroxypropylcellulose) (HPC)
[19] = dose: 400.0 mg/kg/injection, schedule: Q04DX003 (ip), vehicle: Klucel (hydroxypropylcellulose) (HPC)
[20] = dose: 25.0 mg/kg/injection, schedule: Q01DX009 (ip), vehicle: saline with Tween-80
[21] = dose: 50.0 mg/kg/injection, schedule: Q01DX009 (ip), vehicle: Klucel (hydroxypropylcellulose) (HPC)

CCC(C)(OC(C)=O)C(=O)O[C@H]1C(=O)O[C@@H]2C[C@H]3C(C)=CC(=O)[C@@H](O)[C@]3(C)[C@H]3[C@@]4(O)OC[C@]32[C@@H]1[C@@H](C)[C@H]4O (stereo partly drawn)
T/C (dose: 0.25 mg/kg/injection, schedule: Q01DX009 (ip), vehicle: saline): 119 % of control | T/C (dose: 1.25 mg/kg/injection, schedule: Q01DX009 (ip), vehicle: saline): 157 % of control | T/C (dose: 2.0 mg/kg/injection, schedule: Q01DX009 (ip), vehicle: saline): 121 % of control | T/C (dose: 5.0 mg/kg/injection, schedule: Q01DX009 (ip), vehicle: saline): 123 % of control

C/C=C/CCCCCCCC(=O)OCCCC
T/C [1]: 109 % of control | T/C [2]: 110 % of control | T/C [3]: 95 % of control | T/C [4]: 105 % of control | T/C [5]: 113 % of control | T/C [6]: 120 % of control

Clc1ccc(-c2noc(CN3CCCCC3)n2)cc1
T/C [7]: 88 % of control | T/C [1]: 88 % of control

C/C(=C/c1c(C)[nH]c(=O)[nH]c1=O)C(=O)O
T/C (dose: 25.0 mg/kg/injection, schedule: Q01DX009 (ip), vehicle: saline): 89 % of control | T/C (dose: 50.0 mg/kg/injection, schedule: Q01DX009 (ip), vehicle: saline): 89 % of control | T/C (dose: 100.0 mg/kg/injection, schedule: Q01DX009 (ip), vehicle: saline): 96 % of control | T/C [8]: 101 % of control | T/C (dose: 200.0 mg/kg/injection, schedule: Q01DX009 (ip), vehicle: saline): 105 % of control | T/C [9]: 91 % of control | T/C (dose: 400.0 mg/kg/injection, schedule: Q04DX003 (ip), vehicle: saline): 87 % of control

CC(NC(=O)OCc1ccccc1)C(=O)NC(CC(=O)O)C(=O)O (stereo not drawn)
T/C [10]: 100 % of control | T/C [11]: 100 % of control | T/C [8]: 110 % of control

CC(C)(C#N)Nc1ccccc1
T/C (dose: 3.13 mg/kg/injection, schedule: Q01DX009 (ip), vehicle: saline with Tween-80): 90 % of control and 100 % of control | T/C [12]: 90 % of control and 95 % of control | T/C [13]: 95 % of control

Cc1ccccc1C1c2ccccc2C(=O)c2cccc(C)c21 (stereo not drawn)
T/C (dose: 100.0 mg/kg/injection, schedule: Q01DX001 (ip), vehicle: Klucel (hydroxypropylcellulose) (HPC)): 104 % of control | T/C [14]: 105 % of control | T/C [15]: 100 % of control | T/C (dose: 200.0 mg/kg/injection, schedule: Q01DX001 (ip), vehicle: Klucel (hydroxypropylcellulose) (HPC)): 109 % of control | T/C [16]: 100 % of control | T/C [17]: 95 % of control | T/C (dose: 400.0 mg/kg/injection, schedule: Q01DX001 (ip), vehicle: Klucel (hydroxypropylcellulose) (HPC)): 100 % of control | T/C [18]: 100 % of control | T/C [19]: 108 % of control

Cc1nc2ncn(C)c2nc1C
T/C (dose: 25.0 mg/kg/injection, schedule: Q01DX001 (ip), vehicle: saline sonified): 105 % of control | T/C (dose: 50.0 mg/kg/injection, schedule: Q01DX001 (ip), vehicle: saline sonified): 100 % of control | T/C (dose: 100.0 mg/kg/injection, schedule: Q01DX001 (ip), vehicle: saline sonified): 105 % of control

COC(=O)N1c2ccccc2C=CC1C#N (stereo not drawn)
T/C [13]: 100 % of control | T/C [20]: 90 % of control and 100 % of control | T/C (dose: 25.0 mg/kg/injection, schedule: Q04DX003 (ip), vehicle: saline with Tween-80): 100 % of control | T/C [7]: 90 % of control | T/C (dose: 50.0 mg/kg/injection, schedule: Q04DX003 (ip), vehicle: saline with Tween-80): 109 % of control | T/C [1]: 100 % of control | T/C [2]: 100 % of control

O=C(O)CCCCCS
T/C [21]: 100 % of control | T/C [14]: 102 % of control | T/C [16]: 99 % of control

O=C(NC(Cl)=C(Cl)Cl)P(=O)(c1ccccc1)c1ccccc1
T/C (dose: 50.0 mg/kg/injection, schedule: Q01DX005 (ip), vehicle: saline with Tween-80): 92 % of control | T/C (dose: 100.0 mg/kg/injection, schedule: Q01DX005 (ip), vehicle: saline with Tween-80): 111 % of control | T/C (dose: 200.0 mg/kg/injection, schedule: Q01DX005 (ip), vehicle: saline with Tween-80): 95 % of control

C/C(=N\NC(=O)CC(=O)N/N=C(\C)c1ccncc1)c1ccncc1
T/C (dose: 75.0 mg/kg/injection, schedule: Q01DX009 (ip), vehicle: saline with Tween-80): 99 % of control | T/C (dose: 150.0 mg/kg/injection, schedule: Q01DX009 (ip), vehicle: saline with Tween-80): 90 % of control | T/C (dose: 300.0 mg/kg/injection, schedule: Q01DX009 (ip), vehicle: saline with Tween-80): 94 % of control

CC(=O)O[C@H]1[C@H]2O[C@]23[C@@H]2CC[C@@H]4C[C@@H](O)CC[C@]4(C)[C@H]2CC[C@]3(C)[C@H]1c1ccc(=O)oc1
T/C (dose: 3.75 mg/kg/injection, schedule: Q01DX009 (ip), vehicle: Klucel (hydroxypropylcellulose) (HPC)): 100 % of control | T/C (dose: 7.5 mg/kg/injection, schedule: Q01DX009 (ip), vehicle: Klucel (hydroxypropylcellulose) (HPC)): 104 % of control | T/C (dose: 10.0 mg/kg/injection, schedule: Q01DX010 (ip), vehicle: carboxymethylcellulose (CMC)): 90 % of control | T/C (dose: 20.0 mg/kg/injection, schedule: Q01DX010 (ip), vehicle: carboxymethylcellulose (CMC)): 90 % of control

CCC(=O)OC1CC2C3CCC4=CC(=O)CCC4(C)C3CCC2(C)C1OC(=O)CC (stereo not drawn)
T/C [15]: 100 % of control | T/C [16]: 109 % of control | T/C [17]: 104 % of control | T/C [18]: 91 % of control and 122 % of control | T/C [19]: 104 % of control

Cc1cnc(O[Si](C)(C)C)nc1O[Si](C)(C)C
T/C [1]: 100 % of control | T/C [3]: 91 % of control | T/C [5]: 116 % of control

COc1cc2c3cc1Oc1c(O)c(OC)cc4c1C(Cc1cc5c(c(c1)Oc1ccc(cc1)CC3N(C)CC2)OCO5)N(C)CC4 (stereo not drawn)
T/C (dose: 1.25 mg/kg/injection, schedule: Q01DX010 (ip), vehicle: saline): 90 % of control | T/C (dose: 2.5 mg/kg/injection, schedule: Q01DX010 (ip), vehicle: saline): 95 % of control | T/C (dose: 5.0 mg/kg/injection, schedule: Q01DX010 (ip), vehicle: saline): 90 % of control | T/C (dose: 10.0 mg/kg/injection, schedule: Q01DX010 (ip), vehicle: saline): 86 % of control

COC(=O)C(Cc1ccc(N(CCCl)CCCl)cc1)N=NNc1nc[nH]c1C(N)=O (stereo not drawn)
T/C (dose: 14.0 mg/kg/injection, schedule: Q04DX003 (ip), vehicle: saline): 154 % of control | T/C (dose: 33.0 mg/kg/injection, schedule: Q04DX003 (ip), vehicle: saline): 195 % of control | T/C [11]: 213 % of control

FC(F)(F)C(F)(F)c1nc2nc(Cl)c(Cl)nc2[nH]1
T/C (dose: 25.0 mg/kg/injection, schedule: Q01DX009 (ip), vehicle: other): 100 % of control | T/C (dose: 50.0 mg/kg/injection, schedule: Q01DX009 (ip), vehicle: other): 114 % of control

COc1cc2c(cc1OC)C1CNCC1C(c1cc(OC)c(OC)c(OC)c1)C2 (stereo not drawn)
T/C (dose: 12.5 mg/kg/injection, schedule: Q01DX009 (ip), vehicle: Klucel (hydroxypropylcellulose) (HPC)): 105 % of control | T/C (dose: 25.0 mg/kg/injection, schedule: Q01DX009 (ip), vehicle: Klucel (hydroxypropylcellulose) (HPC)): 100 % of control | T/C [21]: 100 % of control | T/C [14]: 90 % of control

Cn1cnc([N+](=O)[O-])c1[Se]c1nc(N)nc2c1ncn2C1CC(O)C(CO)O1 (stereo not drawn)
T/C [11]: 95 % of control | T/C [8]: 90 % of control | T/C [9]: 90 % of control

Cc1ccc(N2CCN(CCCN3CCN(c4ccccc4Cl)CC3)CC2)cc1
T/C [12]: 86 % of control | T/C (dose: 6.25 mg/kg/injection, schedule: Q04DX003 (ip), vehicle: saline): 104 % of control | T/C [13]: 95 % of control | T/C (dose: 12.5 mg/kg/injection, schedule: Q04DX003 (ip), vehicle: saline): 100 % of control | T/C [20]: 100 % of control | T/C [10]: 104 % of control

CCCN(Cc1ccc(CN(CCC)C(=O)C(Cl)Cl)cc1)C(=O)C(Cl)Cl
T/C [2]: 93 % of control | T/C [4]: 95 % of control | T/C [6]: 88 % of control

O=C1c2cscc2C(=O)c2c(Cl)sc(Cl)c21
T/C [12]: 101 % of control | T/C [13]: 108 % of control | T/C [20]: 101 % of control
